Measurements reported in the METLIN SMRT retention time set (Domingo-Almenara et al. 2019).

Test: gradient 5% acetonitrile 3 min, to 50% in 2 min, to 85% in 15 min, held 3 min, 100 µL/min
Settings: column: Zorbax Extend-C18 2.1 x 50 mm; eluents: water / acetonitrile, 0.1% formic acid
Method in brief: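 Values are retention times taken from adduct peaks that software picked and an analyst inspected. The pure standards were run as mixtures of ~100 molecules on HPLC linked to a quadrupole time-of-flight mass spectrometer, in positive and negative ionization mode. A Zorbax Extend-C18 column (2.1 × 50 mm, 1.8 μm) was used at 100 μL/min with water and acetonitrile, each including 0.1% formic acid.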

Work on `Cc1oc(-c2[nH]ncc2C(=O)N(C)C)cc1S(=O)(=O)Nc1cc(F)cc(F)c1` yielded an RP-LC retention time of 890 s.
Work on `Cc1cccc(-c2ncccc2CNS(=O)(=O)Cc2ccccc2F)c1` yielded an RP-LC retention time of 705 s.
`CCOCCCNC(=O)C1CCCN(S(=O)(=O)c2ccc(OC)c(C)c2)C1` (stereo unspecified) showed an RP-LC retention time of 813 s.
`O=C(CCc1ccc2cc[nH]c2c1)NCc1ccccc1` gave an RP-LC retention time of 794 s.
`Cc1cc(C(=O)Nc2ccccc2Cl)nc2cc(-c3ccco3)nn12` showed an RP-LC retention time of 1280 s.
Compound `Cc1ccc(-c2ncccc2CNS(=O)(=O)c2ccc(Cl)s2)cc1` has an RP-LC retention time of 780 s.
In the case of `CCc1ccc(CNC(=O)C2Cc3cc(S(=O)(=O)N(CC)CC)ccc3N2C(C)=O)cc1` (stereo unspecified), the RP-LC retention time is reported as 617 s.
For `CSc1ccc(Cl)c(-c2nc(-c3cccc(-c4ccnn4C)c3)no2)c1`, the RP-LC retention time was 1300 s.
With `O=C(Nc1ccc(N2CCOCC2)cc1)C1CCCN(c2ncc(-c3ccc(F)cc3)cn2)C1` (stereo unspecified) the RP-LC retention time was 951 s.
`CCOc1ccc(Cc2nc(-c3ccc4c(c3)oc(=O)n4C)no2)cc1OCC` showed an RP-LC retention time of 976 s.
With `CCOc1ccccc1NC(=O)CSc1cc(N2CCN(c3ccccc3OC)CC2)ncn1` the RP-LC retention time was 1160 s.
Compound `Cc1ccc(-c2nnc(-c3nc(NCc4cccnc4)c4ccccc4n3)o2)cc1` has an RP-LC retention time of 676 s.
Work on `CC(NC(=O)CCc1c(-c2ccc(Cl)cc2)nc2ccccn12)c1ccccc1` (stereo unspecified) yielded an RP-LC retention time of 700 s.
`CN(C)C(=O)C1c2ccccc2CCN1CC(=O)N1CCN(c2ccc(Cl)cc2)CC1` (stereo unspecified) showed an RP-LC retention time of 742 s.
Compound `COc1cccc(S(=O)(=O)N2CCCC(c3nn[nH]n3)C2)c1` (stereo unspecified) has an RP-LC retention time of 717 s.
With `COCc1nncn1C1CCN(S(=O)(=O)c2ccccc2C(F)(F)F)CC1` the RP-LC retention time was 725 s.
With `Cc1nnc(-c2cn(CC(=O)Nc3ccccc3Br)c3ccccc23)o1` the RP-LC retention time was 829 s.
Work on `CCOC(=O)c1c(C)[nH]c(C(=O)N2CCC(CC(=O)NCc3cccnc3)CC2)c1C` yielded an RP-LC retention time of 608 s.
In the case of `CSc1ncccc1C(=O)Nc1ccc2c(c1)CCC(=O)N2C`, the RP-LC retention time is reported as 684 s.
`Cc1cnc(-n2nnc(C(=O)N3CCN(C(=O)c4ccco4)CC3)c2C)s1` gave an RP-LC retention time of 687 s.
For `O=C(c1cccc(F)c1)N1CCC2(CC1)N=C(c1ccc(Cl)cc1)NO2`, the RP-LC retention time was 800 s.
`CC(=O)c1cccc(C(=O)N2CCC3(CC2)NC(=O)N(Cc2cccc(Cl)c2)C3=O)c1` gave an RP-LC retention time of 771 s.
`CC1CN(c2nc3ccccc3nc2C(C#N)C(=O)OCc2ccccc2)CC(C)O1` (stereo unspecified) gave an RP-LC retention time of 1140 s.
For `Cn1c(C(=O)NCc2cc(F)ccc2F)cc2ccncc21`, the RP-LC retention time was 622 s.
With `O=C(CN1c2ccc(F)cc2-c2ccccc2S1(=O)=O)NCCN1CCOCC1` the RP-LC retention time was 624 s.
For `O=C(c1ccccc1Br)N1CCN(c2cc(-c3cccs3)[nH]n2)CC1`, the RP-LC retention time was 761 s.
In the case of `Cc1ccc(C)c(-c2cc3c(=O)n(Cc4nc(-c5ccc(Br)cc5)no4)ncn3n2)c1`, the RP-LC retention time is reported as 1320 s.
`O=C(c1cc(-c2ccc(F)c(F)c2)on1)N1CCC(Cn2cccn2)CC1` showed an RP-LC retention time of 797 s.
With `CN(C)C[C@@H]1CN(Cc2ccccn2)C[C@H]1NS(=O)(=O)c1cccc(F)c1` the RP-LC retention time was 553 s.
`CC1=C(c2ccc(F)cc2)S(=O)(=O)N=C1N1CCCN(C(=O)CC(C)(C)C)CC1` showed an RP-LC retention time of 856 s.
Work on `O=C(NCCN1CCCCCC1)C1CCCN(c2ncc(-c3cccc(F)c3)cn2)C1` (stereo unspecified) yielded an RP-LC retention time of 715 s.
In the case of `O=C(CN1CCN(Cc2ccc(F)cc2Cl)C1=O)NCCCc1ccccc1`, the RP-LC retention time is reported as 930 s.
For `COc1ccccc1NC(=O)C1CC(=O)N(c2ccc3c(c2)CCN3C(=O)C2CC2)C1` (stereo unspecified), the RP-LC retention time was 778 s.
Compound `O=C(Nc1ccccc1C(=O)NCCCN1CCCC1)C1=CSCCO1` has an RP-LC retention time of 613 s.
Compound `CN(C)c1ccc2c(c1)CN(C(=O)C1COc3ccccc3O1)CCO2` (stereo unspecified) has an RP-LC retention time of 679 s.
For `CCCCN1C(=O)C(C)(C(=O)N2CCN(c3ccccc3F)CC2)Oc2cccnc21` (stereo unspecified), the RP-LC retention time was 1190 s.
